In ChEMBL document CHEMBL5244269, “Improving metabolic stability and removing aldehyde oxidase liability in a 5-azaquinazoline series of IRAK4 inhibitors” (Bioorg Med Chem, 2020):

Key:
Type in all cases: functional
SUD4 [1] = assay: Growth inhibition of human SU-DHL-4 cells at 1.7 uM incubated for 3 days in presence of 0.17 uM acalabrutinib relative to control; conditions: SU-DHL-4, 72 h, time 3 day, read-out: GI
OCI-Ly10 [2] = assay: Growth inhibition of human OCILY10 cells at 1.7 uM incubated for 3 days in presence of 0.017 uM acalabrutinib relative to control; conditions: OCI-Ly10, 72 h, time 3 day, read-out: GI
SUD4 [3] = assay: Growth inhibition of human SU-DHL-4 cells at 0.33 uM incubated for 3 days in presence of 0.033 uM acalabrutinib relative to control; conditions: SU-DHL-4, 72 h, time 3 day, read-out: GI
SUD4 [4] = assay: Growth inhibition of human SU-DHL-4 cells at 3.3 uM incubated for 3 days in presence of 0.17 uM acalabrutinib relative to control; conditions: SU-DHL-4, 72 h, time 3 day, read-out: GI
OCI-Ly10 [5] = assay: Growth inhibition of human OCILY10 cells at 1.7 uM incubated for 3 days in presence of 0.33 uM acalabrutinib relative to control; conditions: OCI-Ly10, 72 h, time 3 day, read-out: GI
OCI-Ly10 [6] = assay: Growth inhibition of human OCILY10 cells at 0.17 uM incubated for 3 days in presence of 0.017 uM acalabrutinib relative to control; conditions: OCI-Ly10, 72 h, time 3 day, read-out: GI
SUD4 [7] = assay: Growth inhibition of human SU-DHL-4 cells at 1.7 uM incubated for 3 days in presence of 0.033 uM acalabrutinib relative to control; conditions: SU-DHL-4, 72 h, time 3 day, read-out: GI
OCI-Ly10 [8] = assay: Growth inhibition of human OCILY10 cells at 0.17 uM incubated for 3 days in presence of 0.003 uM acalabrutinib relative to control; conditions: OCI-Ly10, 72 h, time 3 day, read-out: GI
OCI-Ly10 [9] = assay: Growth inhibition of human OCILY10 cells at 3.3 uM incubated for 3 days in presence of 0.017 uM acalabrutinib relative to control; conditions: OCI-Ly10, 72 h, time 3 day, read-out: GI
OCI-Ly10 [10] = assay: Growth inhibition of human OCILY10 cells at 0.33 uM incubated for 3 days in presence of 0.33 uM acalabrutinib relative to control; conditions: OCI-Ly10, 72 h, time 3 day, read-out: GI
OCI-Ly10 [11] = assay: Growth inhibition of human OCILY10 cells at 3.3 uM incubated for 3 days in presence of 0.33 uM acalabrutinib relative to control; conditions: OCI-Ly10, 72 h, time 3 day, read-out: GI
SUD4 [12] = assay: Growth inhibition of human SU-DHL-4 cells at 10 uM incubated for 3 days in presence of 0.017 uM acalabrutinib relative to control; conditions: SU-DHL-4, 72 h, time 3 day, read-out: GI
SUD4 [13] = assay: Growth inhibition of human SU-DHL-4 cells at 1.7 uM incubated for 3 days in presence of 0.017 uM acalabrutinib relative to control; conditions: SU-DHL-4, 72 h, time 3 day, read-out: GI
OCI-Ly10 [14] = assay: Growth inhibition of human OCILY10 cells at 3.3 uM incubated for 3 days in presence of 0.17 uM acalabrutinib relative to control; conditions: OCI-Ly10, 72 h, time 3 day, read-out: GI
SUD4 [15] = assay: Growth inhibition of human SU-DHL-4 cells at 0.17 uM incubated for 3 days in presence of 0.003 uM acalabrutinib relative to control; conditions: SU-DHL-4, 72 h, time 3 day, read-out: GI
OCI-Ly10 [16] = assay: Growth inhibition of human OCILY10 cells at 0.33 uM incubated for 3 days in presence of 0.017 uM acalabrutinib relative to control; conditions: OCI-Ly10, 72 h, time 3 day, read-out: GI
SUD4 [17] = assay: Growth inhibition of human SU-DHL-4 cells at 3.3 uM incubated for 3 days in presence of 0.33 uM acalabrutinib relative to control; conditions: SU-DHL-4, 72 h, time 3 day, read-out: GI
SUD4 [18] = assay: Growth inhibition of human SU-DHL-4 cells at 0.33 uM incubated for 3 days in presence of 0.33 uM acalabrutinib relative to control; conditions: SU-DHL-4, 72 h, time 3 day, read-out: GI
SUD4 [19] = assay: Growth inhibition of human SU-DHL-4 cells at 0.33 uM incubated for 3 days in presence of 0.003 uM acalabrutinib relative to control; conditions: SU-DHL-4, 72 h, time 3 day, read-out: GI
SUD4 [20] = assay: Growth inhibition of human SU-DHL-4 cells at 0.33 uM incubated for 3 days in presence of 0.017 uM acalabrutinib relative to control; conditions: SU-DHL-4, 72 h, time 3 day, read-out: GI
OCI-Ly10 [21] = assay: Growth inhibition of human OCILY10 cells at 1.7 uM incubated for 3 days in presence of 0.003 uM acalabrutinib relative to control; conditions: OCI-Ly10, 72 h, time 3 day, read-out: GI
OCI-Ly10 [22] = assay: Growth inhibition of human OCILY10 cells at 10 uM incubated for 3 days in presence of 0.033 uM acalabrutinib relative to control; conditions: OCI-Ly10, 72 h, time 3 day, read-out: GI
SUD4 [23] = assay: Growth inhibition of human SU-DHL-4 cells at 1.7 uM incubated for 3 days in presence of 0.003 uM acalabrutinib relative to control; conditions: SU-DHL-4, 72 h, time 3 day, read-out: GI
SUD4 [24] = assay: Growth inhibition of human SU-DHL-4 cells at 0.17 uM incubated for 3 days in presence of 0.17 uM acalabrutinib relative to control; conditions: SU-DHL-4, 72 h, time 3 day, read-out: GI
SUD4 [25] = assay: Growth inhibition of human SU-DHL-4 cells at 1.7 uM incubated for 3 days in presence of 0.33 uM acalabrutinib relative to control; conditions: SU-DHL-4, 72 h, time 3 day, read-out: GI
SUD4 [26] = assay: Growth inhibition of human SU-DHL-4 cells at 3.3 uM incubated for 3 days in presence of 0.017 uM acalabrutinib relative to control; conditions: SU-DHL-4, 72 h, time 3 day, read-out: GI
OCI-Ly10 [27] = assay: Growth inhibition of human OCILY10 cells at 1.7 uM incubated for 3 days in presence of 0.033 uM acalabrutinib relative to control; conditions: OCI-Ly10, 72 h, time 3 day, read-out: GI
SUD4 [28] = assay: Growth inhibition of human SU-DHL-4 cells at 0.17 uM incubated for 3 days in presence of 0.33 uM acalabrutinib relative to control; conditions: SU-DHL-4, 72 h, time 3 day, read-out: GI
OCI-Ly10 [29] = assay: Growth inhibition of human OCILY10 cells at 10 uM incubated for 3 days in presence of 0.017 uM acalabrutinib relative to control; conditions: OCI-Ly10, 72 h, time 3 day, read-out: GI
OCI-Ly10 [30] = assay: Growth inhibition of human OCILY10 cells at 10 uM incubated for 3 days in presence of 0.33 uM acalabrutinib relative to control; conditions: OCI-Ly10, 72 h, time 3 day, read-out: GI
SUD4 [31] = assay: Growth inhibition of human SU-DHL-4 cells at 10 uM incubated for 3 days in presence of 0.17 uM acalabrutinib relative to control; conditions: SU-DHL-4, 72 h, time 3 day, read-out: GI
OCI-Ly10 [32] = assay: Growth inhibition of human OCILY10 cells at 0.17 uM incubated for 3 days in presence of 0.033 uM acalabrutinib relative to control; conditions: OCI-Ly10, 72 h, time 3 day, read-out: GI
SUD4 [33] = assay: Growth inhibition of human SU-DHL-4 cells at 3.3 uM incubated for 3 days in presence of 0.033 uM acalabrutinib relative to control; conditions: SU-DHL-4, 72 h, time 3 day, read-out: GI
SUD4 [34] = assay: Growth inhibition of human SU-DHL-4 cells at 0.17 uM incubated for 3 days in presence of 0.033 uM acalabrutinib relative to control; conditions: SU-DHL-4, 72 h, time 3 day, read-out: GI
SUD4 [35] = assay: Growth inhibition of human SU-DHL-4 cells at 0.17 uM incubated for 3 days in presence of 0.017 uM acalabrutinib relative to control; conditions: SU-DHL-4, 72 h, time 3 day, read-out: GI
SUD4 [36] = assay: Growth inhibition of human SU-DHL-4 cells at 3.3 uM incubated for 3 days in presence of 0.003 uM acalabrutinib relative to control; conditions: SU-DHL-4, 72 h, time 3 day, read-out: GI
OCI-Ly10 [37] = assay: Growth inhibition of human OCILY10 cells at 3.3 uM incubated for 3 days in presence of 0.003 uM acalabrutinib relative to control; conditions: OCI-Ly10, 72 h, time 3 day, read-out: GI
OCI-Ly10 [38] = assay: Growth inhibition of human OCILY10 cells at 0.33 uM incubated for 3 days in presence of 0.17 uM acalabrutinib relative to control; conditions: OCI-Ly10, 72 h, time 3 day, read-out: GI
OCI-Ly10 [39] = assay: Growth inhibition of human OCILY10 cells at 0.17 uM incubated for 3 days in presence of 0.33 uM acalabrutinib relative to control; conditions: OCI-Ly10, 72 h, time 3 day, read-out: GI
OCI-Ly10 [40] = assay: Growth inhibition of human OCILY10 cells at 1.7 uM incubated for 3 days in presence of 0.17 uM acalabrutinib relative to control; conditions: OCI-Ly10, 72 h, time 3 day, read-out: GI
SUD4 [41] = assay: Growth inhibition of human SU-DHL-4 cells at 10 uM incubated for 3 days in presence of 0.003 uM acalabrutinib relative to control; conditions: SU-DHL-4, 72 h, time 3 day, read-out: GI

## Cc1ncc(-c2nc3c(NC(C)C)nc(Nc4cnn(C5CC6(C5)CN(C)C6)c4)nc3cc2F)cn1
SUD4 [1]
  inhibition of growth at 1.7 µM: 3%
OCI-Ly10 [2]
  inhibition of growth at 1.7 µM: 196%
SUD4 [3]
  inhibition of growth at 0.33 µM: 3%
SUD4 [4]
  inhibition of growth at 3.3 µM: 4%
OCI-Ly10 [5]
  inhibition of growth at 1.7 µM: 195%
OCI-Ly10 [6]
  inhibition of growth at 0.17 µM: 97%
SUD4 [7]
  inhibition of growth at 1.7 µM: 3%
OCI-Ly10 [8]
  inhibition of growth at 0.17 µM: 29%
OCI-Ly10 [9]
  inhibition of growth at 3.3 µM: 196%
OCI-Ly10 [10]
  inhibition of growth at 0.33 µM: 183%
OCI-Ly10 [11]
  inhibition of growth at 3.3 µM: 195%
SUD4 [12]
  inhibition of growth at 10 µM: 7%
SUD4 [13]
  inhibition of growth at 1.7 µM: 3%
OCI-Ly10 [14]
  inhibition of growth at 3.3 µM: 196%
SUD4 [15]
  inhibition of growth at 0.17 µM: 3%
OCI-Ly10 [16]
  inhibition of growth at 0.33 µM: 158%
SUD4 [17]
  inhibition of growth at 3.3 µM: 7%
SUD4 [18]
  inhibition of growth at 0.33 µM: 6%
SUD4 [19]
  inhibition of growth at 0.33 µM: 3%
SUD4 [20]
  inhibition of growth at 0.33 µM: 3%
OCI-Ly10 [21]
  inhibition of growth at 1.7 µM: 170%
OCI-Ly10 [22]
  inhibition of growth at 10 µM: 198%
SUD4 [23]
  inhibition of growth at 1.7 µM: 3%
SUD4 [24]
  inhibition of growth at 0.17 µM: 3%
SUD4 [25]
  inhibition of growth at 1.7 µM: 6%
SUD4 [26]
  inhibition of growth at 3.3 µM: 4%
OCI-Ly10 [27]
  inhibition of growth at 1.7 µM: 196%
SUD4 [28]
  inhibition of growth at 0.17 µM: 6%
OCI-Ly10 [29]
  inhibition of growth at 10 µM: 197%
OCI-Ly10 [30]
  inhibition of growth at 10 µM: 198%
SUD4 [31]
  inhibition of growth at 10 µM: 7%
OCI-Ly10 [32]
  inhibition of growth at 0.17 µM: 137%
SUD4 [33]
  inhibition of growth at 3.3 µM: 4%
SUD4 [34]
  inhibition of growth at 0.17 µM: 2%
SUD4 [35]
  inhibition of growth at 0.17 µM: 3%
SUD4 [36]
  inhibition of growth at 3.3 µM: 4%
OCI-Ly10 [37]
  inhibition of growth at 3.3 µM: 189%
OCI-Ly10 [38]
  inhibition of growth at 0.33 µM: 185%
OCI-Ly10 [39]
  inhibition of growth at 0.17 µM: 173%
OCI-Ly10 [40]
  inhibition of growth at 1.7 µM: 197%
SUD4 [41]
  inhibition of growth at 10 µM: 7%
